In PMC10313671, “Accelerating the prediction and discovery of peptide hydrogels with human-in-the-loop” (Nature Communications, 2023):
Where a SMILES comes first, the peptide text is derived from it.

Assays:
[1] = Transmission electron microscope (negative staining) of peptide assemblies; conditions: for Morphology: TEM, negative staining with uranyl acetate, 120 kV
Procedure: We used the negative staining technique to observe the morphologies formed by peptides. A micropipette was used to load 10 μL of sample solution to a carbon-coated copper grid, and we used a piece of filter paper to remove the excess solution. After rinsing the grid with the deionized water, we used uranyl acetate to stain the sample for 1 minute and then rinsed the grid with deionized water again.

[2] = Peptide hydrogel formation, vial-inverting method; format: physicochemical; parameters: key to EXP / GELATION: 0: no hydrogel; 1: hydrogel; conditions: for State: ultrasonication, standing 48 h; for State / GELATION / hydrogel formation (in words): vial-inverting method; for Concentration: concentration at which the state was recorded: lowest of 30, 60, 90, 120 mM that gave a gel, 120 mM for non-gelating peptides; for GELATION: 1 = hydrogel, 0 = no hydrogel; for hydrogel formation (in words): representative hydrogels pH between 7.0 to 7.5
Procedure: After validating the efficiency of APHC in predicting tetrapeptide hydrogels, we detailed the phase state of 165 synthesized tetrapeptides and the observed assembly behavior in an aqueous solution.
This work defines hydrogel formation as a self-supporting, non-flowing mixture of water and hydrogelator by the vial-inverting method. All purified tetrapeptides were dissolved in ultrapure water (to form a 30 mM solution initially), followed by the stepwise addition of 1 N NaOH solution to adjust the overall aqueous pH to 6.5–8.5. Meanwhile, a short-term ultrasonication treatment was applied after each pH adjustment to facilitate peptide solubilization and speed up peptide self-assembly. […] The mixture was allowed to stand in for another 48 h for complete hydrogelation. Upon the absence of gelation phenomenon during the aforementioned loops, we increased the peptide concentration (60 mM, 90 mM, and 120 mM were selected) and re-started such gelation operation loop to explore their gelation feasibility.

[3] = 60 mM peptide in ultrapure water, pH 6.5-8.5 (1 N NaOH), no gel at 30 mM
[4] = 120 mM peptide (highest tested) in ultrapure water, pH 6.5-8.5 (1 N NaOH), precipitate, sol, suspension = no gel
[5] = 30 mM peptide in ultrapure water, pH adjusted to 6.5-8.5 with 1 N NaOH, concentration raised 30/60/90/120 mM until gelation

Compound | Concentration [2] [µM] | Morphology ([1]; line of the table gives 120 mM) | State [2, 4] | GELATION ([2]; peptide concentration 120 mM) | further results
C[C@@H](O)[C@H](NC(=O)[C@@H](N)CO)C(=O)N[C@@H](Cc1ccc(O)cc1)C(=O)N[C@@H](Cc1ccccc1)C(=O)O [STYF] (H-STYF-OH) | 60000 |  |  |  | Morphology ([1]; line of the table gives 60 mM): hybrid(sphere+fibre); State [2, 3]: gel; GELATION ([2]; peptide concentration 60 mM): 1
CCCC [tetrapeptide] | 120000 | sphere | suspension | 0 | 
CC(C)C[C@H](NC(=O)[C@@H](N)CC(C)C)C(=O)N[C@@H](CCCNC(=N)N)C(=O)N[C@@H](CCC(N)=O)C(=O)O [LLRQ] (H-LLRQ-OH) | 120000 | aggregates | suspension | 0 | 
C[C@@H](O)[C@H](NC(=O)[C@@H](N)CS)C(=O)N[C@@H](Cc1ccc(O)cc1)C(=O)N[C@@H](Cc1ccccc1)C(=O)O [CTYF] (H-CTYF-OH) | 30000 |  |  |  | Morphology ([1]; line of the table gives 30 mM): fibre; State [2, 5]: gel; GELATION ([2]; peptide concentration 30 mM): 1
CC(C)C[C@H](NC(=O)CN)C(=O)N[C@@H](CC(C)C)C(=O)N[C@@H](Cc1ccc(O)cc1)C(=O)O [GLLY] (H-GLLY-OH) | 120000 | sheet | suspension | 0 | EXP ([2]; experimental gelation result of the synthesized peptide): 0
NC(=O)C[C@H](NC(=O)[C@H](CC(N)=O)NC(=O)[C@H](CC(N)=O)NC(=O)[C@@H](N)CC(N)=O)C(=O)O [NNNN] (H-NNNN-OH) | 120000 | aggregates | sol | 0 | 
C[C@@H](O)[C@H](N)C(=O)N[C@H](C(=O)N[C@H](C(=O)N[C@H](C(=O)O)[C@@H](C)O)[C@@H](C)O)[C@@H](C)O [TTTT] (H-TTTT-OH) | 120000 | aggregates | suspension | 0 | 
N[C@@H](CO)C(=O)N[C@@H](Cc1ccc(O)cc1)C(=O)N[C@@H](Cc1ccccc1)C(=O)N[C@@H](Cc1ccccc1)C(=O)O [SYFF] (H-SYFF-OH) | 30000 |  |  |  | Morphology ([1]; line of the table gives 30 mM): fibre; State [2, 5]: gel; GELATION ([2]; peptide concentration 30 mM): 1
NCCCC[C@H](NC(=O)[C@H](Cc1ccccc1)NC(=O)[C@H](Cc1ccccc1)NC(=O)[C@@H](N)CCC(=O)O)C(=O)O [EFFK] (H-EFFK-OH) | 120000 | aggregates | sol | 0 | 
N[C@@H](Cc1c[nH]cn1)C(=O)N[C@@H](Cc1c[nH]cn1)C(=O)N[C@@H](Cc1c[nH]cn1)C(=O)N[C@@H](Cc1c[nH]cn1)C(=O)O [HHHH] (H-HHHH-OH) | 120000 | aggregates | sol | 0 | 
N[C@@H](Cc1c[nH]c2ccccc12)C(=O)N[C@@H](Cc1c[nH]c2ccccc12)C(=O)N[C@@H](Cc1c[nH]c2ccccc12)C(=O)N[C@@H](Cc1c[nH]c2ccccc12)C(=O)O [WWWW] (H-WWWW-OH) | 120000 | sphere | suspension | 0 | 
N[C@@H](Cc1c[nH]c2ccccc12)C(=O)N[C@@H](Cc1c[nH]c2ccccc12)C(=O)N[C@@H](CS)C(=O)N1CCC[C@H]1C(=O)O [WWCP] (H-WWCP-OH) | 120000 | aggregates | precipitate | 0 | hydrogel formation (in words) [2]: cannot
CC[C@H](C)[C@H](N)C(=O)N[C@@H](Cc1ccccc1)C(=O)N[C@H](C(=O)N[C@@H](Cc1ccc(O)cc1)C(=O)O)[C@@H](C)CC [IFIY] (H-IFIY-OH) | 60000 |  |  |  | Morphology ([1]; line of the table gives 60 mM): hybrid(particle+fibre); State [2, 3]: gel; GELATION ([2]; peptide concentration 60 mM): 1
CC[C@H](C)[C@H](N)C(=O)N[C@@H](CCSC)C(=O)N[C@H](C(=O)N[C@H](C(=O)O)C(C)C)C(C)C [IMVV] (H-IMVV-OH) | 30000 |  |  |  | Morphology ([1]; line of the table gives 30 mM): aggregates; State [2, 5]: gel; GELATION ([2]; peptide concentration 30 mM): 1; hydrogel formation (in words) [2]: can form hydrogel
CSCC[C@H](NC(=O)[C@@H](N)CCSC)C(=O)N[C@H](C(=O)N[C@H](C(=O)O)C(C)C)C(C)C [MMVV] (H-MMVV-OH) | 30000 |  |  |  | Morphology ([1]; line of the table gives 30 mM): particle; State [2, 5]: gel; GELATION ([2]; peptide concentration 30 mM): 1
CC(C)C[C@H](NC(=O)[C@H](C)NC(=O)[C@@H](N)CC(=O)O)C(=O)N[C@H](C(=O)O)C(C)C [DALV] (H-DALV-OH) | 120000 | aggregates | suspension | 0 | 
CC[C@H](C)[C@H](NC(=O)[C@H](CC(C)C)NC(=O)[C@@H](NC(=O)[C@@H](N)CC(C)C)[C@@H](C)O)C(=O)O [LTLI] (H-LTLI-OH) | 30000 |  |  |  | Morphology ([1]; line of the table gives 30 mM): sheet; State [2, 5]: gel; GELATION ([2]; peptide concentration 30 mM): 1
CC[C@H](C)[C@H](NC(=O)[C@@H](NC(=O)[C@H](C)N)C(C)C)C(=O)N[C@@H](CCC(N)=O)C(=O)O [AVIQ] (H-AVIQ-OH) | 120000 | aggregates | suspension | 0 | 
CC(C)C[C@H](NC(=O)[C@@H](NC(=O)[C@@H](N)CC(C)C)[C@@H](C)O)C(=O)N[C@@H](Cc1ccccc1)C(=O)O [LTLF] (H-LTLF-OH) | 30000 |  |  |  | Morphology ([1]; line of the table gives 30 mM): sheet; State [2, 5]: gel; GELATION ([2]; peptide concentration 30 mM): 1
CC[C@H](C)[C@H](N)C(=O)N[C@@H](Cc1c[nH]cn1)C(=O)N[C@@H](Cc1ccccc1)C(=O)N[C@H](C(=O)O)C(C)C [IHFV] (H-IHFV-OH) | 120000 | sphere | sol | 0 | 
CC(C)C[C@H](N)C(=O)N[C@H](C(=O)N1CCC[C@H]1C(=O)N[C@@H](Cc1ccccc1)C(=O)O)C(C)C [LVPF] (H-LVPF-OH) | 120000 | aggregates | sol | 0 | 
N[C@@H](Cc1c[nH]c2ccccc12)C(=O)N[C@@H](CCC(=O)O)C(=O)N[C@@H](Cc1ccccc1)C(=O)N[C@@H](Cc1ccccc1)C(=O)O [WEFF] (H-WEFF-OH) | 30000 |  |  |  | Morphology ([1]; line of the table gives 30 mM): fibre; morphology by TEM (in words) ([1]; aqueous solution or hydrogel, negative staining): entangled nanofibers; State [2, 5]: gel; GELATION ([2]; peptide concentration 30 mM): 1; hydrogel formation (in words) [2]: hydrogels
CC[C@H](C)[C@H](NC(=O)[C@@H](NC(=O)[C@@H](N)CC(C)C)C(C)C)C(=O)N[C@@H](Cc1ccc(O)cc1)C(=O)O [LVIY] (H-LVIY-OH) | 120000 | sheet | gel | 1 | 
NC(=O)C[C@H](N)C(=O)N[C@@H](Cc1c[nH]c2ccccc12)C(=O)N[C@@H](Cc1c[nH]c2ccccc12)C(=O)N[C@@H](Cc1ccccc1)C(=O)O [NWWF] (H-NWWF-OH) | 30000 |  |  |  | Morphology ([1]; line of the table gives 30 mM): sphere; State [2, 5]: gel; GELATION ([2]; peptide concentration 30 mM): 1
CC(C)[C@H](NC(=O)[C@H](Cc1ccc(O)cc1)NC(=O)[C@H](CO)NC(=O)[C@@H](N)Cc1ccccc1)C(=O)O [FSYV] (H-FSYV-OH) | 60000 |  |  |  | Morphology ([1]; line of the table gives 60 mM): aggregates; State [2, 3]: gel; GELATION ([2]; peptide concentration 60 mM): 1
CC[C@H](C)[C@H](NC(=O)[C@H](Cc1ccc(O)cc1)NC(=O)[C@H](Cc1ccc(O)cc1)NC(=O)[C@@H]1CCCN1)C(=O)O [PYYI] (H-PYYI-OH) | 120000 | aggregates | sol | 0 | 
CC(C)[C@H](NC(=O)[C@@H](NC(=O)[C@H](C)NC(=O)[C@@H](N)Cc1c[nH]c2ccccc12)C(C)C)C(=O)O [WAVV] (H-WAVV-OH) | 60000 |  |  |  | Morphology ([1]; line of the table gives 60 mM): fibre; State [2, 3]: gel; GELATION ([2]; peptide concentration 60 mM): 1
CC(C)C[C@H](NC(=O)[C@H](CO)NC(=O)[C@H](CC(C)C)NC(=O)[C@@H](N)CC(C)C)C(=O)O [LLSL] (H-LLSL-OH) | 60000 |  |  |  | Morphology ([1]; line of the table gives 60 mM): sheet; State [2, 3]: gel; GELATION ([2]; peptide concentration 60 mM): 1
O=C(O)[C@H](Cc1ccc(O)cc1)NC(=O)[C@H](Cc1ccc(O)cc1)NC(=O)[C@H](Cc1c[nH]c2ccccc12)NC(=O)[C@@H]1CCCN1 [PWYY] (H-PWYY-OH) | 60000 |  |  |  | Morphology ([1]; line of the table gives 60 mM): aggregates; State [2, 3]: gel; GELATION ([2]; peptide concentration 60 mM): 1
CSCC[C@H](NC(=O)[C@@H](N)Cc1ccccc1)C(=O)N[C@@H](Cc1ccc(O)cc1)C(=O)N[C@@H](CO)C(=O)O [FMYS] (H-FMYS-OH) | 120000 | aggregates | sol | 0 | 
